Assay results as given in patent US20230295171A1, “FUSED HETEROAROMATIC PYRROLIDINONES” (Calithera Biosciences, Inc., priority 2009, published 2023).

These compounds were tested against SYK (Homo sapiens (Human), UniProt P43405) (assay: SYK inhibition assay (phosphorylation of FAM-labeled SYK-specific substrate, Caliper LC-3000)). Conditions: SYK kinase domain (residues 356-635); 5FAM-KKKKEEIYFFFG-NH2 substrate, ATP, 60 min at RT; pIC50 = -log(IC50), IC50 molar.
Format: biochemical
Protocol: SYK protein is prepared from cDNA encoding human spleen tyrosine kinase and is expressed in insect cells using a baculovirus expression vector. […] The recombinant bacmid DNA is isolated and transfected into Sf9 insect cells. Recombinant virus is harvested 72 h after transfection. High titer viral stock is prepared by infecting Sf9 cells at a multiplicity of infection (MOI) of approximately 0.01. A suspension of Sf9 cells (10 L) is infected with recombinant virus (MOI=5) and is incubated in a Wave Bioreactor (GE-Healthcare) for 48 h. The cells are harvested and stored at −80° C.
To purify the expressed protein, the frozen Sf9 cells (10 L) are broken into small (<1 cm) particles and suspended in a lysis buffer (300 mL) containing 20 mM Tris (pH 7.6), 0.25 mM TCEP, 100 mM NaCl, 5% glycerol and a protease inhibitor. The suspension is stirred at RT until completely thawed, lysed an additional 2-4 min on a rotary blade homogenizer, and then centrifuged at 4200 g for 1 h. Following centrifugation, the supernatant is poured through cheese cloth and combined with a nickel chelating resin (Probond Resin™, Invitrogen) which is pre-equilibrated in a wash buffer containing 10 mM Tris (pH 7.6), 0.25 mM TCEP, 300 mM NaCl, 5% glycerol, and 20 mM imidazole. The mixture is agitated for 3 h in a cold room and then centrifuged at 900 g for 10 min. The resin is dispersed in wash buffer (50 mL), centrifuged for 10 min at 900 g, re-dispersed in a small amount of wash buffer (5 mL), and then pour into a disposable Poly-Prep chromatography column, through which wash buffer is passed by gravity until no protein is observed in coomassie buffer (about 120 mL of wash buffer). An elution buffer (30 mL) containing 10 mM HEPES (pH 7.4), 150 mM NaCl, 10% glycerol, 5 mM DTT, and 400 mM imidazole is used to elute the SYK protein from the resin. The eluate is concentrated (5 mL) and further purified on a Superdex 200 column (1.2 mL/min for 160 min, 10 mM HEPES (pH 7.4), 10 mM NaCl, 10 mM MgCl, 0.1 mM EDTA, and 0.25 mM TCEP). The chromatographed fractions are run on SDS-PAGE and the requisite fractions are pooled and concentrated. Final delivery buffer is 10 mM HEPES (pH 7.4), 10 mM Methione, 150 mM NaCl, 10% glycerol, 5 mM DTT.
SYK inhibition is determined using a black 384 well plate format in buffer containing 50 mM HEPES, 10 mM NaCl, 10 mM MgCl2, 0.2 mM EDTA, 0.01% EDA (Brij® 35), 1 mM DTT, and 0.1 mg/ml BSA at pH 7.3. Each test compound is prepared in DMSO using 2-fold serial dilutions for 11 data points, which are added to the buffer so that each dilution contains 3% DMSO. […] The reaction mixture is incubated at RT for 60 min, and quenched by adding 50 mM Hepes, 30 mM EDTA, 0.1% Triton X-100 (pH 7.3). To quantify the fluorescent-labeled substrate and product following reaction, the test plate is loaded on a Caliper LC-3000, which measures percent of conversion by microfluidic-based separation. Corresponding IC50 values are calculated by non-linear curve fitting of the compound concentrations and percent of inhibition to the standard IC50 equation and reported as pIC50, i.e., −log(IC50), where IC50 is molar concentration.

| Compound | SYK Inhibition (pIC50) |
| --- | --- |
| Cn1cc(-c2nc(N[C@@H]3CCCC(F)(F)[C@@H]3N)c(F)c3c2C(=O)NC3)cn1 (relative stereo) [Example 67, 6-(cis-2-Amino-3,3-difluorocyclohexylamino)-7-fluoro-4-(1-methyl-1H-pyrazol-4-yl)-1H-pyrrolo[3,4-c]pyridin-3(2H)-one] | 7.4 |
| N[C@@H]1[C@H](Nc2nc(-c3cnn(C(F)F)c3)c3c(c2F)CNC3=O)CCCC1(F)F (relative stereo) [Example 68, 6-(cis-2-Amino-3,3-difluorocyclohexylamino)-4-(1-(difluoromethyl)-1H-pyrazol-4-yl)-7-fluoro-1H-pyrrolo[3,4-c]pyridin-3(2H)-one] | 7.0 |
| Cc1cccc(Nc2nc(N[C@@H]3CCCC[C@@H]3O)nc3c2C(=O)NC3)c1 (relative stereo) [Example 11, cis-2-(2-Hydroxycyclohexylamino)-4-(m-tolylamino)-6,7-dihydro-5H-pyrrolo[3,4-d]pyrimidin-5-one] | 5.9 |
| N[C@@H]1[C@H](Nc2nc(-c3cnn(C4CC4)c3)c3c(c2F)CNC3=O)CCCC1(F)F (relative stereo) [Example 69, 6-(cis-2-amino-3,3-difluorocyclohexylamino)-4-(1-cyclopropyl-1H-pyrazol-4-yl)-7-fluoro-1H-pyrrolo[3,4-c]pyridin-3(2H)-one] | 6.8 |
| Cn1cc(-c2nc(N[C@@H]3CC(F)(F)C[C@@H]3N)c(F)c3c2C(=O)NC3)cn1 (relative stereo) [Example 66, 6-(cis-2-Amino-4,4-difluorocyclopentylamino)-7-fluoro-4-(1-methyl-1H-pyrazol-4-yl)-1H-pyrrolo[3,4-c]pyridin-3(2H)-one] | 6.3 |
| Cc1cccc(Nc2nc(N[C@H]3COCC[C@H]3N)cc3c2C(=O)NC3)c1 [Example 86, 6-((3R,4R)-4-Aminotetrahydro-2H-pyran-3-ylamino)-4-(m-tolylamino)-1H-pyrrolo[3,4-c]pyridin-3(2H)-one] | 5.6 |
| Cc1cccc(Nc2nc(N[C@@H]3COC[C@@H]3N)cc3c2C(=O)NC3)c1 (relative stereo) [Example 58, 6-(cis-4-Aminotetrahydrofuran-3-ylamino)-4-(m-tolylamino)-1H-pyrrolo[3,4-c]pyridin-3(2H)-one] | 5.8 |
